The values that follow come from patent US20170114093A1, “Methods of Treatment and Prevention of Disease by Arginine-rich Compositions that Induce Cytoprotection and Neuroprotection” (priority 2015, published 2017).

Test [1] has as its system primary rat cortical neurons. In words: Oxygen glucose deprivation (OGD, 90 min) of primary neuronal cultures, cell viability by MTT reduction. The note with it: for level of protection from OGD, compared with Compound 4: 90 min OGD; for protection of cortical rat neurons from the impact of OGD (cell viability): pre-incubation 30 min before 90 min OGD, MTT. The class given is cell-based. Here is the method: FIGS. 1 and 2 are histograms showing the cell viability of primary rat cortical neurons that had been exposed to ninety (90) minutes oxygen glucose deprivation. Pre-incubation of an arginine-rich polypeptide [RRRRRRRRR (SEQ ID: 4)]
Dissociated primary neuronal cell cultures were prepared from rat brains at 37° C. in a humidified atmosphere containing 5% CO2 and […] and grown to confluence in glucose-containing media. Indicated compounds were applied thirty (30) minutes before cultures were placed in an environment of oxygen glucose deprivation (OGD). OGD was achieved using glucose-free media and a humidified atmosphere containing 5% CO2 and 95% N2. OGD was continued for ninety (90) minutes and terminated by return to baseline conditions with glucose and O2 restored. Reduction of 3-(4,5-dimethyl-2-thiazolyl)-2,5-diphenyltetrazolium bromide (MTT) by cellular dehydrogenases measured mitochondrial activity and cell health. […] This model is a dissociated cell preparation, therefore vasculature is absent, therefore the activity of Compound 4 (SEQ ID NO: 4), an inventive Arginine rich polypeptide, is shown to be independent of changes to vascular tone and indicates protection from a novel mechanism of action.
For orientation: Tetrazolium dyes change colour on reduction, which living cells bring about.

In test [2] the test system is SAPK/JNK. Description: Western blot of phospho-SAPK/JNK (cell death signaling) in OGD-treated primary neuronal cultures. The class given is cell-based, rat. Conditions: after OGD. The source says:
JNK signaling is widely considered to be an indicator of cell death signaling.
Dissociated primary neuronal cell cultures treated in the same manner as indicated in Example 2 were collected and their cells lysed. Cellular proteins were precipitated and denatured for immunohistochemical analysis by Western Blot. Phospho-SAPK/JNK ([…]) antibody detects endogenous levels of p46 and p54 SAPK/JNK dually phosphorylated at threonine 183 and tyrosine 185. Levels of The stress-activated protein kinase/Jun-amino-terminal kinase SAPK/JNK are widely considered to be molecular sequelae of the activation of cell death pathways that lead to apoptosis.
A general note: In western blotting, separated proteins are transferred to a membrane and probed.

Entries after “also recorded” stand apart in the source; their conditions may differ.

In the case of `C[C@@H]([C@@H](O)c1ccc(O)cc1)N1CCC(O)(c2ccccc2)CC1` [CP 101 606], the “level of protection from OGD, compared with Compound 4” value in test [1] (10 μM) is “comparable”. For the same compound, in test [2] (10 μM), the “level of JNK cell death signaling, compared with Compound 4 2 μM” value was “comparable”.

Regarding `C[C@H](NC(c1cccc2[nH]c(=O)c(=O)[nH]c12)P(=O)(O)O)c1ccc(Br)cc1` (some centres unmarked) [NVPAAM077], the “level of protection from OGD, compared with Compound 4” value in test [1] (100 nM) was “comparable”. In addition, the “level of JNK cell death signaling, compared with Compound 4 2 μM” value in test [2] (100 nM) is listed as “comparable”.

“CCRRRRRRR [Control peptide; cysteine-arginine peptide of the kind claimed in WO2013158739]”: the “protection of cortical rat neurons from the impact of OGD (cell viability)” value in test [1] (2 μM) is given as “no significant neuroprotection; also recorded: no significant neuroprotective effect”; in test [1] (2 μM, listed as ccrrrrrrr), “no significant neuroprotection; also recorded: no significant neuroprotective effect”; in test [1] (10 μM), “no significant neuroprotection; also recorded: no significant neuroprotective effect”; in test [1] (10 μM, listed as ccrrrrrrr), “no significant neuroprotection; also recorded: no significant neuroprotective effect”.

Regarding “RRRRRRRRR (cell penetrating peptide) [Compound 4]”, the “protection of cortical rat neurons from the impact of OGD (cell viability)” value in test [1] (2 μM) and in test [1] (10 μM) was “significant protection” in each case. Moreover, the “p54 and p48 JNK cell death signaling (Western blot)” value in test [2] (2 μM, p<0.05, n=3) is on record as “significantly suppressed”.
